From patent publication US20230255954A1, “INTERLEUKIN 33 (IL-33) INHIBITION FOR TREATMENT OF CANCER, FIBROSIS AND INFLAMMATION” (The General Hospital Corporation, priority 2020, published 2023) come the findings set out here.

In test [1] the test system is mouse Il33 gene promoter (IL-33 promoter-luci reporter). As to the kind of experiment: IL-33 promoter luciferase screen of FDA-approved Drug Library. It is filed as cell-based. Particulars: 10 μM, 24 hours; IL-33 promoter-luci vs control-luci stable Pam212 cells; 1056 molecules tested. As for the experimental part: Pam212 cells were grown at 37° C. in DMEM (Thermo Fisher Scientific, Waltham, Mass., catalog no. 11995065) supplemented with 10% fetal bovine serum (Thermo Fisher Scientific, catalog no. 26140079), 1× penicillin-streptomycin-glutamine (Thermo Fisher Scientific, catalog no. 10378016), 1×MEM non-essential amino acids solution (Thermo Fisher Scientific, catalog no. 11140050), 1×HEPES (Thermo Fisher Scientific, catalog no. 15630080) and 0.1% 2-Mercaptoethanol (Thermo Fisher Scientific, catalog no. 21985023). PyMT cell lines (derived from a primary breast tumor of MMTV-PyMrg mouse on a C57BL/6 background) were grown at 37° C. in RPMI Medium 1640 (Thermo Fisher Scientific, catalog no. 11875093) supplemented with 10% fetal bovine serum, 1× penicillin-streptomycin-glutamine and 0.1% 2-Mercaptoethanol. IL-33 promoter-luci vector (GeneCopoeia, Rockville, Md., catalog no. MPRM3494-PG02) or Control-luci vector (deletion form of IL-33 promoter region from IL-33 promoter-luci vector) or Poly (I:C) (Invivogen, San Diego, Calif., catalog no. tlrl-pic) in Pam212 cells were performed using Lipofectamine 2000 (Thermo Fisher Scientific, catalog no. 11668019) according to the manufacturer's instructions.
After transfection of plasmids in Pam212 cells, cells were incubated with 3 μg/ml of puromycin (Invivogen, San Diego, Calif., catalog no. ant-pr-1) for positive transfected cell selection. After following 2 days, medium was changed new puromycin contained medium for further selection. After following 2 days, cells were moved to new plate with puromycin contained medium. Puromycin selection was repeated for five times more.
1000 stable cells were seed to 384 wells (Corning, Glendale, Ariz., catalog no. 3570) and each of plate was incubated 24 hours. Following day, 10 μM of FDA-approved Drug Library compounds (Selleckchem, Houston, Tex., catalog no. L1300) were added to each well. After 24 hours, 5 μL of luciferase buffer from Pierce Gaussia luciferase glow assay kit (Thermo Fisher Scientific, Waltham, Mass., catalog no. 16160) were added each well and incubated for 5 min. Each plate was read and measured with luminescence by EnVision 2014 plate reader (Perkin Elmer, Waltham, Mass., catalog no. 2014 EnVision).
To make small molecule screening platform, we generated both IL-33 promoter-luci and control-luci over-expressed stable epithelial cell line (Pam212) by multiple puromycin selection strategy (FIG. 10A). To find molecules that can inhibit IL-33 expression, we tested 1056 FDA-approved small molecules against our reporter cell line. […] To find bona fide inhibitors of IL-33, we checked RNA level of Il33 by qPCR in cells treated with inducer of IL-33 expression, Poly (I:C). After cells were treated by Poly (I:C), RNA level of Il33 was increased compared to carrier group. However, Il33 RNA level was decreased by pitavastatin and tropisetron in Poly I:C-treated cells (FIGS. 10C and D). […] Finally, endogenous IL-33 protein level was decreased after treatment with pitavastatin in a dose-dependent manner (FIG. 10F). Therefore, pitavastatin is a small inhibitor molecule of IL-33.

Test [2] relates to IRF3 nuclear localization. Briefly: IRF3 nuclear immunofluorescence staining in poly (I:C) treated Pam212 cells. Format: cell-based, mouse. Particulars: compared to only Poly (I:C) treated group. The protocol:
For immunofluorescence staining, Pam212 cells were permeated with 1×PBS supplemented with 0.2% Triton X-100 for 5 min. Slides were washed three times for three minutes each in 1×PBS with 0.1% TWEEN20. Slides were blocked with 1% bovine serum albumin and 5% goat serum for 1 hour. The slides were stained overnight at 4° C. with IRF3 antibody. The following day, slides were washed as above and incubated for two hours at room temperature with secondary antibodies conjugated to fluorochromes. Next, slides were incubated with 1:2000 DAPI (Thermo Fisher Scientific, catalog no. D3571) for five minutes at room temperature, then washed as above. Slides were mounted with Prolong Gold Antifade Reagent (Thermo Fisher Scientific, catalog no. P36930).
Next, to investigate the mechanism by which pitavastatin can block IL-33 expression, we first confirmed p-IRF3 expression level because IRF3 is a transcription factor of IL-33 expression. […] However, pitavastatin treatment with Poly (I:C) to Pam212 cells, level of p-IRF3 was decreased (FIG. 11A). […] After IRF3 are phosphorylated by upstream, p-IRF3 can translocate to nucleus as a transcription factor.

For `O=C(O)C[C@H](O)C[C@H](O)/C=C/c1c(C2CC2)nc2ccccc2c1-c1ccc(F)cc1` [pitavastatin], the “IL-33/Control luminescence ratio (inhibitory effect against IL-33 reporter)” value in test [1] is given as “small molecule candidates”. Further, the IRF3 nuclear localization result in test [2] was “blocked”.
